Measured values published in PubChem BioAssay AID2060513 (Molecular Pharmacology Branch, DTP, NCI, 2025).

System: 299254-011-R-J1-PDC complex spheroids viability
Experiment: Anticancer human tumor 299254-011-R-J1-PDC patient-derived melanoma cell line growth inhibition [GQUAD]
Conditions: for IC50: curve of first compound; for viability, T/C: stronger effect = lower value
Summary of the method: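 Multi-cell-type spheroids of tumor cells with HUVEC and mesenchymal stem cells, treated with drug combinations. Concentrations descend in half-log steps from near clinical Cmax, or from 10 microM where Cmax is unknown; viability read-out.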

[1] = second compound 0.0316 µM, first compound 0.0316 µM
[2] = second compound 0.0316 µM, first compound 0.1 µM
[3] = second compound 0.0316 µM, first compound 0.316 µM
[4] = second compound 0.0316 µM, first compound 1 µM
[5] = second compound 0.0316 µM, first compound 3.16 µM
[6] = second compound 0.0316 µM, first compound 10 µM
[7] = second compound 0.1 µM, first compound 0.0316 µM
[8] = second compound 0.1 µM, first compound 0.1 µM
[9] = second compound 0.1 µM, first compound 0.316 µM
[10] = second compound 0.1 µM, first compound 1 µM
[11] = second compound 0.1 µM, first compound 3.16 µM
[12] = second compound 0.1 µM, first compound 10 µM
[13] = second compound 0.316 µM, first compound 0.0316 µM
[14] = second compound 0.316 µM, first compound 0.1 µM
[15] = second compound 0.316 µM, first compound 0.316 µM
[16] = second compound 0.316 µM, first compound 1 µM
[17] = second compound 0.316 µM, first compound 3.16 µM
[18] = second compound 0.316 µM, first compound 10 µM
[19] = second compound 1 µM, first compound 0.0316 µM
[20] = second compound 1 µM, first compound 0.1 µM
[21] = second compound 1 µM, first compound 0.316 µM
[22] = second compound 1 µM, first compound 1 µM
[23] = second compound 1 µM, first compound 3.16 µM
[24] = second compound 1 µM, first compound 10 µM
[25] = second compound 3.16 µM, first compound 0.0316 µM
[26] = second compound 3.16 µM, first compound 0.1 µM
[27] = second compound 3.16 µM, first compound 0.316 µM
[28] = second compound 3.16 µM, first compound 1 µM
[29] = second compound 3.16 µM, first compound 3.16 µM
[30] = second compound 3.16 µM, first compound 10 µM
[31] = second compound 10 µM, first compound 0.0316 µM
[32] = second compound 10 µM, first compound 0.1 µM
[33] = second compound 10 µM, first compound 0.316 µM
[34] = second compound 10 µM, first compound 1 µM
[35] = second compound 10 µM, first compound 3.16 µM
[36] = second compound 10 µM, first compound 10 µM
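Further: spheroids exposed to the agents for seven days before readout.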
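Wherever viability, T/C is given: percent viability relative to DMSO vehicle control wells = 100%.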

With `C=CCn1c(=O)c2cnc(Nc3ccc(N4CCN(C)CC4)cc3)nc2n1-c1cccc(C(C)(C)O)n1` + Cc1[nH]c2ccc(F)cc2c1-c1nc2c3cccnc3c3ncccc3c2[nH]1 the IC50 (second compound 0.0316 µM) was 1960 nM, the IC50 (second compound 0.1 µM) was 1460 nM and the IC50 (second compound 0.316 µM) was 2120 nM. For the same compound, the IC50 (second compound 1 µM) was 2070 nM, the IC50 (second compound 3.16 µM) was 1560 nM and the IC50 (second compound 10 µM) was 929 nM. For the same compound, the viability, T/C [1] was 95.6%, the viability, T/C [2] was 101% and the viability, T/C [3] was 101%. For the same compound, the viability, T/C [4] was 69.8%, the viability, T/C [5] was 37.3% and the viability, T/C [6] was 29.8%. The viability, T/C [7] was 117%, the viability, T/C [8] was 112% and the viability, T/C [9] was 115%. For the same compound, the viability, T/C [10] was 59.2%, the viability, T/C [11] was 33.2% and the viability, T/C [12] was 29.2%. The viability, T/C [13] was 108%, the viability, T/C [14] was 108% and the viability, T/C [15] was 94%. The viability, T/C [16] was 70.4%, the viability, T/C [17] was 39.1% and the viability, T/C [18] was 25%. For the same compound, the viability, T/C [19] was 109%, the viability, T/C [20] was 92.7% and the viability, T/C [21] was 92.9%. The viability, T/C [22] was 66.2%, the viability, T/C [23] was 39.4% and the viability, T/C [24] was 23.6%. For the same compound, the viability, T/C [25] was 86.1%, the viability, T/C [26] was 91% and the viability, T/C [27] was 102%. The viability, T/C [28] was 62.3%, the viability, T/C [29] was 33% and the viability, T/C [30] was 27.8%. For the same compound, the viability, T/C [31] was 94.4%, the viability, T/C [32] was 81.9% and the viability, T/C [33] was 85.9%. For the same compound, the viability, T/C [34] was 46.9%, the viability, T/C [35] was 26.4% and the viability, T/C [36] was 19.4%.

With `O=c1[nH]cc(F)c(=O)[nH]1` + CN(C)c1ccc(Nc2c3ccc(NC(=O)CCN4CCCC4)cc3nc3cc(NC(=O)CCN4CCCC4)ccc23)cc1 the IC50 (second compound 0.0316 µM) was over 10000 nM, the IC50 (second compound 0.1 µM) was over 10000 nM and the IC50 (second compound 0.316 µM) was over 10000 nM. For the same compound, the IC50 (second compound 1 µM) was over 10000 nM, the IC50 (second compound 3.16 µM) was over 10000 nM and the IC50 (second compound 10 µM) was over 10000 nM. The viability, T/C [1] was 93.3%, the viability, T/C [2] was 106% and the viability, T/C [3] was 105%. For the same compound, the viability, T/C [4] was 104%, the viability, T/C [5] was 110% and the viability, T/C [6] was 82.9%. It also gave a viability, T/C [7] of 79.3%, a viability, T/C [8] of 91.4% and a viability, T/C [9] of 90.7%. It also gave a viability, T/C [10] of 92.2%, a viability, T/C [11] of 86.7% and a viability, T/C [12] of 91.5%. For the same compound, the viability, T/C [13] was 89.2%, the viability, T/C [14] was 106% and the viability, T/C [15] was 80.2%. It also gave a viability, T/C [16] of 93.3%, a viability, T/C [17] of 104% and a viability, T/C [18] of 82.6%. For the same compound, the viability, T/C [19] was 106%, the viability, T/C [20] was 91.3% and the viability, T/C [21] was 93.3%. It also gave a viability, T/C [22] of 84.6%, a viability, T/C [23] of 103% and a viability, T/C [24] of 101%. For the same compound, the viability, T/C [25] was 82.7%, the viability, T/C [26] was 103% and the viability, T/C [27] was 112%. For the same compound, the viability, T/C [28] was 95.1%, the viability, T/C [29] was 115% and the viability, T/C [30] was 106%. It also gave a viability, T/C [31] of 91.3%, a viability, T/C [32] of 96.8% and a viability, T/C [33] of 98.4%. The viability, T/C [34] was 94.7%, the viability, T/C [35] was 90.9% and the viability, T/C [36] was 96.3%.

For `O=C(c1cc(Cc2n[nH]c(=O)c3ccccc23)ccc1F)N1CCN(C(=O)C2CC2)CC1` + Cc1cnc(CNC(=O)c2c(=O)c3ccc(N4CCCN(C)CC4)nc3n3c2sc2ccccc23)cn1, the IC50 (second compound 0.0316 µM) was over 10000 nM, the IC50 (second compound 0.1 µM) was over 10000 nM and the IC50 (second compound 0.316 µM) was over 10000 nM. For the same compound, the IC50 (second compound 1 µM) was over 10000 nM, the IC50 (second compound 3.16 µM) was over 10000 nM and the IC50 (second compound 10 µM) was under 31.6 nM. It also gave a viability, T/C [1] of 99.3%, a viability, T/C [2] of 92.8% and a viability, T/C [3] of 94.1%. For the same compound, the viability, T/C [4] was 83.4%, the viability, T/C [5] was 87.2% and the viability, T/C [6] was 81.5%. It also gave a viability, T/C [7] of 102%, a viability, T/C [8] of 99.8% and a viability, T/C [9] of 89.7%. For the same compound, the viability, T/C [10] was 98.4%, the viability, T/C [11] was 117% and the viability, T/C [12] was 81.6%. For the same compound, the viability, T/C [13] was 81.6%, the viability, T/C [14] was 97.2% and the viability, T/C [15] was 91.3%. It also gave a viability, T/C [16] of 102%, a viability, T/C [17] of 103% and a viability, T/C [18] of 73.9%. For the same compound, the viability, T/C [19] was 78%, the viability, T/C [20] was 79.5% and the viability, T/C [21] was 82.7%. The viability, T/C [22] was 73.5%, the viability, T/C [23] was 75.6% and the viability, T/C [24] was 66%. For the same compound, the viability, T/C [25] was 67.1%, the viability, T/C [26] was 91.5% and the viability, T/C [27] was 93.7%. It also gave a viability, T/C [28] of 78.8%, a viability, T/C [29] of 69.5% and a viability, T/C [30] of 67.9%. The viability, T/C [31] was 0.42%, the viability, T/C [32] was 20.2% and the viability, T/C [33] was 52.3%. For the same compound, the viability, T/C [34] was 41.7%, the viability, T/C [35] was 0.43% and the viability, T/C [36] was 0.33%.

In the case of `CC(C)n1c(=O)n(C)c2cnc3cc(F)c(-c4ccc(OCCCN5CCCCC5)nc4)cc3c21` + Cc1cnc(CNC(=O)c2c(=O)c3ccc(N4CCCN(C)CC4)nc3n3c2sc2ccccc23)cn1, the IC50 (second compound 0.0316 µM) is reported as over 10000 nM, the IC50 (second compound 0.1 µM) is reported as 7380 nM and the IC50 (second compound 0.316 µM) is reported as 2380 nM. The IC50 (second compound 1 µM) was 4090 nM, the IC50 (second compound 3.16 µM) was 1360 nM and the IC50 (second compound 10 µM) was under 31.6 nM. The viability, T/C [1] was 94.4%, the viability, T/C [2] was 79.1% and the viability, T/C [3] was 85.8%. It also gave a viability, T/C [4] of 73%, a viability, T/C [5] of 69.7% and a viability, T/C [6] of 51%. The viability, T/C [7] was 96.9%, the viability, T/C [8] was 96.4% and the viability, T/C [9] was 77.3%. It also gave a viability, T/C [10] of 87.8%, a viability, T/C [11] of 63.1% and a viability, T/C [12] of 44.4%. The viability, T/C [13] was 77.4%, the viability, T/C [14] was 87.2% and the viability, T/C [15] was 65.2%. It also gave a viability, T/C [16] of 55.7%, a viability, T/C [17] of 53% and a viability, T/C [18] of 39.5%. It also gave a viability, T/C [19] of 56.4%, a viability, T/C [20] of 56.6% and a viability, T/C [21] of 66.9%. It also gave a viability, T/C [22] of 54.7%, a viability, T/C [23] of 58.1% and a viability, T/C [24] of 22.4%. It also gave a viability, T/C [25] of 55.4%, a viability, T/C [26] of 78.3% and a viability, T/C [27] of 64%. It also gave a viability, T/C [28] of 53.5%, a viability, T/C [29] of 35.6% and a viability, T/C [30] of 13.6%. The viability, T/C [31] was 0.37%, the viability, T/C [32] was 12.4% and the viability, T/C [33] was 12.2%. It also gave a viability, T/C [34] of 3.21%, a viability, T/C [35] of 0.36% and a viability, T/C [36] of 0.31%.
